Papp, IC50 and inhibition data for twelve compounds are collected here from ChEMBL document CHEMBL1138487, “Tacripyrines, the first tacrine-dihydropyridine hybrids, as multitarget-directed ligands for the treatment of Alzheimer's disease” (J Med Chem, 2009).

SMILES strings stand for the structures.

Series [1] can be described thus: in vitro. Particulars: pig, PAMPA.
Description: Permeability across porcine brain lipid coated polyvinylidene fluoride membrane by PAMPA
For series [2], the target named is Acetylcholinesterase (Electrophorus electricus, UniProt O42275).
Description: Inhibition of electric eel AChE by Rappaport method
For series [3], the target named is Cholinesterase (Homo sapiens, UniProt P06276).
Chain of Cholinesterase (P06276 whole entry): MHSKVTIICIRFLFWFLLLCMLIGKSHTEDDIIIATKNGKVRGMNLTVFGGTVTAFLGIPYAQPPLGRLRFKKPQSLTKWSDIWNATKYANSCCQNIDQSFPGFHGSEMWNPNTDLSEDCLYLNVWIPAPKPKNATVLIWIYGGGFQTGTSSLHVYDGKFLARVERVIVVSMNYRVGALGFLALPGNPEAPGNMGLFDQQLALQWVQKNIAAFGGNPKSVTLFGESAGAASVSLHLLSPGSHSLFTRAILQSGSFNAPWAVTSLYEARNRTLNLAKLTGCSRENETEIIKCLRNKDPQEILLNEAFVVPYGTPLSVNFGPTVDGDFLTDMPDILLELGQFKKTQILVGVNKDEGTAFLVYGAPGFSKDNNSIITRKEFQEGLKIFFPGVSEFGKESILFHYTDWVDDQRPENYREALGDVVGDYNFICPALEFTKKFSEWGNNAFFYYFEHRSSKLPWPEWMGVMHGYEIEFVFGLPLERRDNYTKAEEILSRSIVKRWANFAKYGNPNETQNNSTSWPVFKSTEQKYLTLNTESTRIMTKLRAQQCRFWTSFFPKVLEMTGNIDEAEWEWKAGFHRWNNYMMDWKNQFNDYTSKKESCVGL
Description: Inhibition of human serum BChE by Ellman's method
Series [4] concerns the target T1, Acetylcholinesterase (Homo sapiens, UniProt P22303).
Description: Inhibition of human serum AChE by Ellman's method
Series [5] in a line: Inhibition of amyloid beta (1-42) self-aggregation at 1:1 drug to amyloid beta (1 to 42) ratio after 24 hrs by thioflavin T fluorescence method. Conditions: concentration not given here.
Series [6] concerns the target T1, Acetylcholinesterase. Particulars: 100 uM.
Description: Inhibition of human AChE-induced amyloid beta (1-40) aggregation at 100 uM after 24 hrs by thioflavin T fluorescence method

Chain of Acetylcholinesterase (Electrophorus electricus, UniProt O42275) (O42275 whole entry): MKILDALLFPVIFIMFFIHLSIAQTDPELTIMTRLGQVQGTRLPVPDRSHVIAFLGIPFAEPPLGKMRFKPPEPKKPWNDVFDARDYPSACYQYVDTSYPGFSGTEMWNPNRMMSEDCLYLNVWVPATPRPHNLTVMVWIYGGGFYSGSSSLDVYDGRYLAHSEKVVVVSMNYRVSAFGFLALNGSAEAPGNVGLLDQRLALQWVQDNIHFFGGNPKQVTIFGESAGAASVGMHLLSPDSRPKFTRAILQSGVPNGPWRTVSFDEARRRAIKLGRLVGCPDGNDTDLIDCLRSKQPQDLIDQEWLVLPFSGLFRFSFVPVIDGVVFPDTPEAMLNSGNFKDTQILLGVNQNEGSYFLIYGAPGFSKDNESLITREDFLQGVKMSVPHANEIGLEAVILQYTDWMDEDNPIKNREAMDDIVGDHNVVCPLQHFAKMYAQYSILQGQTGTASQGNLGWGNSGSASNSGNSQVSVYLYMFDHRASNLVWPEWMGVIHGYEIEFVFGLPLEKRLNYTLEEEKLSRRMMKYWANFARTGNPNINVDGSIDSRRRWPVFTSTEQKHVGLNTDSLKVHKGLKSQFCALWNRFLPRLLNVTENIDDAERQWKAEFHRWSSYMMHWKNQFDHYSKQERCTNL
T1 sequence (P22303 whole entry): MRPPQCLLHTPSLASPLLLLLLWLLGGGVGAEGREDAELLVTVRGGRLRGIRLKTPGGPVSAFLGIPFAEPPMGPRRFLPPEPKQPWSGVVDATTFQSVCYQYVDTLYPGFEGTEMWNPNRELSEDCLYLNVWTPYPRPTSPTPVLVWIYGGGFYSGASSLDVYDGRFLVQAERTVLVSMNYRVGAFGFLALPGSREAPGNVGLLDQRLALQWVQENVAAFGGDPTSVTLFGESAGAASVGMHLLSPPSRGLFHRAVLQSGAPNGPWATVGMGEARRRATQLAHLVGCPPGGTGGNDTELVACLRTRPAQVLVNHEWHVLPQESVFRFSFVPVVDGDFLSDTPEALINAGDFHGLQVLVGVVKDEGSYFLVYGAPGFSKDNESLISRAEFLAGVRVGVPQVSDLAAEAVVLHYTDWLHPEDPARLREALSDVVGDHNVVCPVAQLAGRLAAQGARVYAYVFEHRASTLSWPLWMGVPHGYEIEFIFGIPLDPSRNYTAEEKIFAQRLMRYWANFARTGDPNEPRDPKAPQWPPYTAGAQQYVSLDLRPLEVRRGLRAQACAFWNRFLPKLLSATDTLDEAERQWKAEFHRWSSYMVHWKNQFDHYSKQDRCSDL

With `C[C@]12CCC(=O)C=C1CC[C@@H]1[C@@H]2[C@@H](O)C[C@]2(C=O)[C@@H](C(=O)CO)CC[C@@H]12` [ALDOSTERONE], the Papp in series [1] was 0.6 ×10⁻⁶ cm/s. In the case of `CCOC(=O)C1=C(C)Nc2nc3c(c(N)c2C1c1ccncc1)CCCC3` (stereo unspecified), the IC50 in series [2] was 220 nM; in series [3], more than 100000 nM; in series [4], 223 nM. For `CCOC(=O)C1=C(C)Nc2nc3c(c(N)c2C1c1ccc(OC)cc1)CCCC3` (stereo unspecified), the results for the inhibition in series [5] and in series [6] were 34.9% and 30.7%, respectively. As to `CN1C(C(=O)Nc2ccccn2)=C(O)c2ccccc2S1(=O)=O` [PIROXICAM], the apparent permeability coefficient (Papp) in series [1] was 0.4 ×10⁻⁶ cm/s. As for `CCOC(=O)C1=C(C)Nc2nc3c(c(N)c2C1c1cccnc1)CCCC3` (stereo unspecified), the half-inhibitory concentration (IC50) was 47 nM in series [2], more than 100000 nM in series [3] and 158 nM in series [4]. `CCn1cc(C(=O)O)c(=O)c2cc(F)c(N3CCNC(C)C3)c(F)c21` (stereo unspecified) [LOMEFLOXACIN] gave a Papp in series [1] of 0.5 ×10⁻⁶ cm/s.

For the compound `COc1ccc(CCN2CCC(Nc3nc4ccccc4n3Cc3ccc(F)cc3)CC2)cc1` [ASTEMIZOLE], the Papp in series [1] turned out to be 6.1 ×10⁻⁶ cm/s. Take `CN(C)CCCN1c2ccccc2Sc2ccccc21` [PROMAZINE]: the apparent permeability (Papp) in series [1] turned out to be 7.7 ×10⁻⁶ cm/s. Regarding `CCn1cc(C(=O)O)c(=O)c2cc(F)c(N3CCNCC3)nc21` [ENOXACIN], in series [1], the Papp was found to be 0.6 ×10⁻⁶ cm/s. The compound `CC(=O)[C@H]1CC[C@H]2[C@@H]3CCC4=CC(=O)CC[C@]4(C)[C@H]3CC[C@]12C` [PROGESTERONE] registered a Papp in series [1] of 6.6 ×10⁻⁶ cm/s.

For the compound `CCOC(=O)C1=C(C)Nc2nc3c(c(N)c2C1c1ccc(OC)c(OC)c1)CCCC3` (stereo unspecified), the IC50 in series [2] was 103 nM; in series [3] it was more than 100000 nM; in series [4], 45 nM.

For the compound `CCOC(=O)C1=C(C)Nc2nc3c(c(N)c2C1c1ccc(-c2ccccc2)cc1)CCCC3` (stereo unspecified), the IC50 in series [2] was 90 nM; in series [3] it was more than 100000 nM; in series [4], 71 nM.
